Reference: publication PMC4535766, “Antiprotozoal Activity Profiling of Approved Drugs: A Starting Point toward Drug Repositioning” (PLoS ONE, 2015)
Structures can show the parent of a compound that is named as a salt. Where two headings read alike, the source gives them in different places.

Experiments:
[1] = system: T. b. rhodesiense strain STIB 900, trypomastigotes; assay: In vitro activity against T. b. rhodesiense, serial drug dilution assay; conditions: for IC50: Trypanosoma brucei; for selectivity ratio: rat
Protocol: (§1) Drug stock solutions (10mg/ml) were in DMSO (100%). […] Selectivity index (SI) was calculated as IC50 L6 cells/IC50 parasite.

in vitro = conditions: rat
Protocol: as §1

[2] = system: T. cruzi, strain Tulahuen C4, intracellular amastigotes; assay: microbe, parasite or virus in culture; conditions: Trypanosoma cruzi, TULAHUEN
Protocol: as §1

[3] = system: axenic amastigotes of L. donovani, strain MHOM-ET-67/L82; assay: In vitro activity against L. donovani axenic amastigotes, serial drug dilution assay; format: cell-based, Leishmania donovani; conditions: Leishmania donovani
Protocol: as §1

[4] = system: intracellular amastigotes of L. donovani strain MHOM-ET-67/L82; assay: Activity against Leishmania donovani intracellular amastigotes in mouse peritoneal macrophages; conditions: Leishmania donovani, Peritoneal macrophage, in Mus musculus
Protocol: After 24 h 1.2 x 10^5 amastigote L. donovani in 100 μl were added. The amastigotes were taken from an axenic culture grown at pH 5.4. Four hours later, the medium containing free amastigote forms was removed and replaced by fresh medium. The next day the medium was replaced by medium with or without a serial drug dilution of seven 3-fold dilution steps covering a range from 30 to 0.04 μg/ml. Parasite growth in the presence of the drug was compared to control wells. After 96 h of incubation, the medium was removed and the slides fixed with methanol for 10 min followed by staining with a 10% Giemsa solution. Infected and non-infected macrophages were counted for the control cultures and those exposed to the serial drug dilutions. The infection rates were determined. The results were expressed as a percentage reduction in parasite burden compared to control wells, and the IC50 was calculated by linear regression analysis. The collection of mouse peritoneal macrophages was done at the Swiss Tropical and Public Health Institute (Basel) according to the rules and regulations for the protection of animal rights ("Tierschutzverordnung") of the Swiss "Bundesamt für Veterinärwesen".

P. falciparum strain K1 = assay: In vitro activity against P. falciparum, serial drug dilution assay; conditions: for Activity against P. falciparum (in words): in vitro; for selectivity ratio: rat
Protocol: as §1

[5] = Cytotoxicity on macrophages infected with L. donovani; format: cell-based, mouse; conditions: mouse
[6] = axenic amastigotes, strain MHOM-ET-67/L82, means of two independent assays, read-out: IC50 L. don. axen.
[7] = 96 h, read-out: IC50 L. don. intracell
[8] = Plasmodium falciparum, K1, read-out: IC50 P. falc. K1
[9] = macrophages infected with L. donovani, read-out: IC50 Cytotox. mac.inf.
[10] = L6 cells, IC50 Cytotox. L6, L6 cells, means of two independent assays
[11] = mouse peritoneal macrophages infected with L. donovani, macrophages infected with L. donovani, read-out: IC50 Cytotox. mac.inf.
[12] = read-out: L. don. intracell IC50
[13] = infected macrophages, read-out: Cytotox. mac.inf. IC50
[14] = L. donovani axenic amastigotes, read-out: L. don. axen. IC50
[15] = Plasmodium falciparum, K1, read-out: P. falc. IC50

Structure (SMILES)	IC50 ([1]; read-out: IC50 T. b. rhod.) [µM]	IC50 ([2]; read-out: IC50 T. cruzi) [µM]	IC50 [3, 6] [µM]	IC50 [4, 7] [µM]	IC50 (in vitro; IC50 Cytotox. L6) [µM]	IC50 (P. falciparum strain K1; [8]) [µM]	IC50 at 96 h [5, 9] [µM]	further results
CCCSc1ccc2nc(NC(=O)OC)[nH]c2c1 [Albendazole]	14.7	12.3	> 113	> 3.77				IC50 (in vitro): 0.41 µM
NC12CC3CC(CC(C3)C1)C2 [Amantadine]	52.8	371	> 595	> 198	215	5.67	> 198	
CN(C)CCC=C1c2ccccc2CCc2ccccc21 [Amitriptyline]	3.03	35.1	131	> 10.8		1.16	36.1	selectivity ratio ([1]; Selectivity index: IC50 Cytotoxicity L6/ IC50 T. b. rhodesiense): 14; IC50 (in vitro): 42.2 µM; Activity against P. falciparum (in words) (P. falciparum strain K1): micromolar range
Clc1ccc2c(c1)C(N1CCNCC1)=Nc1ccccc1O2 [Amoxapine]					16.2		31.9	
CC(C)CN(C[C@@H](O)[C@H](Cc1ccccc1)NC(=O)O[C@H]1CCOC1)S(=O)(=O)c1ccc(N)cc1 [Amprenavir]	28.5	105	113	> 59.3		15.2	> 59.3	IC50 (in vitro): 160 µM
COC(=O)N[C@H](C(=O)N[C@@H](Cc1ccccc1)[C@@H](O)CN(Cc1ccc(-c2ccccn2)cc1)NC(=O)[C@@H](NC(=O)OC)C(C)(C)C)C(C)(C)C [Atazanavir (Sulfate), Atazanavir]	12.7	33.3	24.1	> 37.5		7.95		IC50 (in vitro; [10]): 46.5 µM; IC50 at 96 h [5, 11]: > 37.5 µM
CC(Cc1cccc(C(F)(F)F)c1)NCCOC(=O)c1ccccc1 (stereo not shown) [Benfluorex]	21.1	73.7	243	54.4	49.1	6.52	> 85.4	
O=C(Cn1ccnc1[N+](=O)[O-])NCc1ccccc1 [Benznidazole]		1.99						
c1ccc(-c2ccc(C(c3ccccc3)n3ccnc3)cc2)cc1 (stereo not shown) [Bifonazole]	26.8	0.003	5.48	> 32.2	39.3	3.18	> 32.2	
O=C(O)COCCN1CCN(C(c2ccccc2)c2ccc(Cl)cc2)CC1 (stereo not shown) [Cetirizine (Hydrochloride), Cetirizine]	99.5	120	186	> 70.5	149	20	> 70.5	
CCN(CC)CCCC(C)Nc1ccnc2cc(Cl)ccc12 (stereo not shown) [Chloroquine (Diphosphate), Chloroquine]	3.81					0.17		selectivity ratio [1]: 13; IC50 (in vitro): 50.6 µM; IC50 ([2]; read-out: T. cruzi IC50): 99.2 µM; IC50 ([3]; read-out: L. don. axen. IC50): > 196 µM; IC50 [4, 12]: > 58.9 µM; selectivity ratio (P. falciparum strain K1): 298; IC50 (P. falciparum strain K1; read-out: IC50 P. falc. K1): 0.13 µM; IC50 at 96 h [5, 13]: > 58.9 µM
CN(C)CCCN1c2ccccc2Sc2ccc(Cl)cc21 [Chlorpromazine]	1.25	17.2	48.5	> 9.41	12.3	3.03	31.4	
CN/C(=N/CCSCc1nc[nH]c1C)NC#N [Cimetidine]	> 396	351	> 396	> 119	302	29.2	> 119	
O=C(O)c1cn(C2CC2)c2cc(N3CCNCC3)c(F)cc2c1=O [Ciprofloxacin]								IC50 ([1]; read-out: T. b. rhod. IC50): 35.9 µM; IC50 (in vitro; Cytotox. L6 IC50): 118 µM; IC50 ([2]; read-out: T. cruzi IC50): 92 µM; IC50 [3, 14]: > 302 µM; IC50 [4, 12]: > 90.5 µM; IC50 (P. falciparum strain K1; [15]): 13.2 µM; IC50 at 96 h [5, 13]: > 90.5 µM
CCN(CC)CCOc1ccc(C(=C(Cl)c2ccccc2)c2ccccc2)cc1 [Clomiphene]								IC50 (in vitro; Cytotox. L6 IC50): 13.1 µM; MCC at 96 h [5, 13]: 24.6 µM
CN(C)CCCN1c2ccccc2CCc2ccc(Cl)cc21 [Clomipramine]					19.8		31.8	
Clc1ccc(C(OCCN2CCCCC2)c2ccccc2)cc1 (stereo not shown) [Cloperastine]	4.91	9.46	265	> 30.3		0.87		IC50 (in vitro; [10]): 43.4 µM; Activity against P. falciparum (in words) (P. falciparum strain K1): selective activities; selectivity ratio (P. falciparum strain K1; Selectivity index: IC50 Cytotoxicity L6/ IC50 P. falciparum): 50; MCC at 96 h ([5]; mouse peritoneal macrophages infected with L. donovani, read-out: IC50 Cytotox. mac.inf.): 90.9 µM

Structure (SMILES)	IC50 ([1]; read-out: IC50 T. b. rhod.) [µM]	IC50 ([2]; read-out: IC50 T. cruzi) [µM]	IC50 [3, 6] [µM]	IC50 [4, 7] [µM]	IC50 (in vitro; IC50 Cytotox. L6) [µM]	IC50 (P. falciparum strain K1; [8]) [µM]	IC50 at 96 h [5, 9] [µM]	further results
C#C[C@]1(O)CC[C@H]2[C@@H]3CCC4=Cc5oncc5C[C@]4(C)[C@H]3CC[C@@]21C [Danazol]								IC50 ([1]; read-out: T. b. rhod. IC50): 45.9 µM; IC50 (in vitro; Cytotox. L6 IC50): 32 µM; IC50 ([2]; read-out: T. cruzi IC50): 6.25 µM; IC50 [3, 14]: 10.2 µM; IC50 [4, 12]: > 29.6 µM; IC50 (P. falciparum strain K1; [15]): 14.1 µM; IC50 at 96 h [5, 13]: > 29.6 µM
Nc1ccc(S(=O)(=O)c2ccc(N)cc2)cc1 [Dapsone]	353	220	> 403	> 121	204	168	> 121	
CC(C)CN(C[C@@H](O)[C@H](Cc1ccccc1)NC(=O)O[C@H]1CO[C@H]2OCC[C@H]21)S(=O)(=O)c1ccc(N)cc1 [Darunavir]	31.4	92.2	125	> 54.8		46.9		
OCCN(CCO)c1nc(N2CCCCC2)c2nc(N(CCO)CCO)nc(N3CCCCC3)c2n1 [Dipyridamole]	7.45	29.3	62	> 59.5	38.6	1.3	> 59.5	Activity against P. falciparum (in words) (P. falciparum strain K1): selective activities
CNCCC(Oc1ccc(C(F)(F)F)cc1)c1ccccc1 (stereo not shown) [Fluoxetine]					15			Activity against P. falciparum (in words) (P. falciparum strain K1): micromolar range; MCC at 96 h [5, 9]: 32.3 µM
OCCN1CCN(CCCN2c3ccccc3Sc3ccc(C(F)(F)F)cc32)CC1 [Fluphenazine]					11.5		22.9	Activity against P. falciparum (in words) (P. falciparum strain K1): micromolar range
CCC(C)n1ncn(-c2ccc(N3CCN(c4ccc(OCC5COC(Cn6cncn6)(c6ccc(Cl)cc6Cl)O5)cc4)CC3)cc2)c1=O (stereo not shown) [Itraconazole]	8.53	0.004	2.42	> 1.42	1.11	1.37		
CC(=O)N1CCN(c2ccc(OCC3COC(Cn4ccnc4)(c4ccc(Cl)cc4Cl)O3)cc2)CC1 (stereo not shown) [Ketoconazole]	33.1	0.27	38.8	> 18.8				IC50 (in vitro): 51 µM
Nc1nc(N)nc(Nc2ccc([As]3SCC(CO)S3)cc2)n1 (stereo not shown) [Melarsoprol]	0.01							
CCCCCCCCCCCCCCCCOP(=O)([O-])OCC[N+](C)(C)C [Miltefosine]				1.21				
Cc1ncc([N+](=O)[O-])n1CC(O)CCl (stereo not shown) [Ornidazole]	25.9	130	> 136	> 136	> 408		> 136	
CC(C)c1nc(CN(C)C(=O)N[C@H](C(=O)N[C@@H](Cc2ccccc2)C[C@H](O)[C@H](Cc2ccccc2)NC(=O)OCc2cncs2)C(C)C)cs1 [Ritonavir]	4.3	20.7	8.97	> 41.6		16.2		
Cn1c([N+](=O)[O-])cnc1N1CCN(S(C)(=O)=O)C1=O [Satranidazole]	18.7	19.1	10.4	> 104				IC50 (in vitro; [10]): > 311 µM; IC50 at 96 h [5, 11]: > 104 µM
Cc1ncc([N+](=O)[O-])n1CC(C)O (stereo not shown) [Secnidazole]	28.7	> 161	> 161	> 161	> 483		> 161	
CSc1ccc2c(c1)N(CCC1CCCCN1C)c1ccccc1S2 (stereo not shown) [Thioridazine]					5.39			MCC at 96 h [5, 13]: 25.8 µM
CCS(=O)(=O)CCn1c([N+](=O)[O-])cnc1C [Tinidazole]	16.6	> 81	> 81	> 81	> 243		> 81	Activity against T. b. rhodesiense (in words) ([1]; in vitro): inactive
